Usually Ki stands for a dissociation constant, usually derived from enzyme kinetics or from competition with a known ligand. A word on the IC50: it is the concentration that gives 50% inhibition.

The structures appear in SMILES notation. Like-named read-outs stand apart in the source and are kept apart here.

In test [1] the target is T1, human recombinant 5-HT2A receptor (Homo sapiens, UniProt P28223).
T1 construct: expressed in transfected cells; host or cells: Jump-In HEK cells (membrane preparation)
The test is described as follows: Test Example 1-2: 5-HT2A receptor binding inhibition test ([3H]-Ketanserin; non-specific ligand Ketanserin). Summed up:
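Membranes expressing the receptor were incubated with [3H]-ketanserin and compound for 1.5 h at 25 °C, then filtered onto plates presoaked in 50 mmol/L Tris-HCl pH 7.4 and scintillation-counted. Non-specific binding was defined with 500 µmol/L unlabeled ketanserin. Ki was taken from dose-response curves, with Kd set for each membrane lot by Scatchard analysis.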

Test [2] addresses T2, human recombinant 5-HT2C receptor (Homo sapiens, UniProt P28335).
T2 construct: expressed in transfected cells; host or cells: Jump-In HEK cells (membrane preparation)
T2 sequence (P28335 33-458): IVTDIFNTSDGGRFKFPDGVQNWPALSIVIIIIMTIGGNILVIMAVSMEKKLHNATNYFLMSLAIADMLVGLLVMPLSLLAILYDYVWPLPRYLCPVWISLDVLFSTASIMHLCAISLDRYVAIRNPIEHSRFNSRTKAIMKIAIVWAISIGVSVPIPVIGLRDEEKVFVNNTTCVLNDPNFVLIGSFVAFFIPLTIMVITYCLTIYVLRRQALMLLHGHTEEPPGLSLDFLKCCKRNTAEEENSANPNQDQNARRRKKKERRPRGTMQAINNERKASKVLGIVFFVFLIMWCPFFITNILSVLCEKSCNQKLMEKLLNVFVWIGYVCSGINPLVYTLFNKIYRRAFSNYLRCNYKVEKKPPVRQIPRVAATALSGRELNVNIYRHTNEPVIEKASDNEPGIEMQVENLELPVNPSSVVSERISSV
Briefly: Test Example 2-2: 5-HT2C receptor binding inhibition test ([3H]-Mesulergine; non-specific ligand Ketanserin). The following applies: non-specific binding with 500 µmol/L Ketanserin, 37°C, 2 hours. The essentials:
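Membranes expressing the receptor were incubated with compound and [3H]-Mesulergine for 2 h at 37 °C, then filtered and counted by scintillation. Non-specific binding was defined with 500 µmol/L Ketanserin. Percent inhibition versus vehicle gave dose-response curves, from which Ki was derived using a Kd from Scatchard saturation analysis.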

In test [3] the target is T3, human ether-a-go-go related gene (hERG) channel (Homo sapiens, UniProt Q12809).
T3 construct: expressed in transfected cells; host or cells: CHO cells
Briefly: Test Example 3: hERG test (FluxORII thallium flux, FLIPR, 8000 cells/well). The format is cell-based. The following applies: CHO cells expressing hERG channel, compound reacted for 10 minutes, 100% inhibition = E-4031 10.3 µmol/L. On the procedure: (§1) For the purpose of evaluating risk of an electrocardiogram QT interval prolongation of the compound of the present invention, effects of the compound are studied by evaluating the activity of potassium channel using CHO cells expressing human ether-a-go-go related gene (hERG) channel.
(§2) Evaluation is performed using a FluxORII Green Potassium Ion Channel Assay kit (Invitrogen: Molecular Probes).
Cells (8000 cells/well/40 µL) are seeded in a 384 assay plate, and are incubated overnight (37°C, 5% CO2). […]
(§3) A cell plate is placed on a cell-based kinetic assay system FLIPR (Molecular Devices, LLC.), and the compound is added to the cells so as to have a desired concentration and reacted for 10 minutes. When a mixed solution of potassium and thallium as a stimulator is added thereto, the potassium channel is opened, and thallium that flowed into the cells binds to the fluorescent indicator, so that the intracellular fluorescence signal increases, and the potassium channel current is detected as a fluorescence signal. […] Then, the inhibition rate is calculated from the signal intensity at each concentration. IC50 is calculated from the inhibition rate at each concentration.
(The hERG channel carries a current that helps repolarise heart muscle cells.)

In test [4] the target is T2, human recombinant 5-HT2C receptor. Briefly: Test Example 2: 5-HT2C receptor binding inhibition test ([3H]-Mesulergine; non-specific ligand Serotonin HCl). The following applies: human serotonin 5-HT2C receptor binding activity. Summed up: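 Filtration binding to membranes bearing human 5-HT2C with [3H]-mesulergine, 2 h at 37°C; non-specific binding defined with 500 µmol/L serotonin HCl, total binding with vehicle. Inhibition rate computed from cpm; Ki derived from dose-response curve, with ligand Kd from Scatchard analysis of saturation binding.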

Test [5] concerns the target T3, human ether-a-go-go related gene (hERG) channel. The test is described as follows: Test Example 3-2: hERG test (FluxORII thallium flux, FLIPR, 4000 cells/well). The format is cell-based. Conditions: CHO cells expressing hERG channel, compound reacted for 10 minutes, 100% inhibition = E-4031 10.3 µmol/L. On the procedure:
as §1, §2
Cells (4000 cells/well/40 µL) are seeded in a 384 assay plate, and are incubated overnight (37°C, 5% CO2). After replacing the medium with a Wash buffer (lxHBSS, 20 mM HEPES) with a microplate washer, a fluorescent indicator is added to the medium and allowed to incubate (37°C, 5% CO2) for 1 hour for incorporation of the fluorescent indicator into cells.
as §3

T3 sequence (Q12809 whole entry): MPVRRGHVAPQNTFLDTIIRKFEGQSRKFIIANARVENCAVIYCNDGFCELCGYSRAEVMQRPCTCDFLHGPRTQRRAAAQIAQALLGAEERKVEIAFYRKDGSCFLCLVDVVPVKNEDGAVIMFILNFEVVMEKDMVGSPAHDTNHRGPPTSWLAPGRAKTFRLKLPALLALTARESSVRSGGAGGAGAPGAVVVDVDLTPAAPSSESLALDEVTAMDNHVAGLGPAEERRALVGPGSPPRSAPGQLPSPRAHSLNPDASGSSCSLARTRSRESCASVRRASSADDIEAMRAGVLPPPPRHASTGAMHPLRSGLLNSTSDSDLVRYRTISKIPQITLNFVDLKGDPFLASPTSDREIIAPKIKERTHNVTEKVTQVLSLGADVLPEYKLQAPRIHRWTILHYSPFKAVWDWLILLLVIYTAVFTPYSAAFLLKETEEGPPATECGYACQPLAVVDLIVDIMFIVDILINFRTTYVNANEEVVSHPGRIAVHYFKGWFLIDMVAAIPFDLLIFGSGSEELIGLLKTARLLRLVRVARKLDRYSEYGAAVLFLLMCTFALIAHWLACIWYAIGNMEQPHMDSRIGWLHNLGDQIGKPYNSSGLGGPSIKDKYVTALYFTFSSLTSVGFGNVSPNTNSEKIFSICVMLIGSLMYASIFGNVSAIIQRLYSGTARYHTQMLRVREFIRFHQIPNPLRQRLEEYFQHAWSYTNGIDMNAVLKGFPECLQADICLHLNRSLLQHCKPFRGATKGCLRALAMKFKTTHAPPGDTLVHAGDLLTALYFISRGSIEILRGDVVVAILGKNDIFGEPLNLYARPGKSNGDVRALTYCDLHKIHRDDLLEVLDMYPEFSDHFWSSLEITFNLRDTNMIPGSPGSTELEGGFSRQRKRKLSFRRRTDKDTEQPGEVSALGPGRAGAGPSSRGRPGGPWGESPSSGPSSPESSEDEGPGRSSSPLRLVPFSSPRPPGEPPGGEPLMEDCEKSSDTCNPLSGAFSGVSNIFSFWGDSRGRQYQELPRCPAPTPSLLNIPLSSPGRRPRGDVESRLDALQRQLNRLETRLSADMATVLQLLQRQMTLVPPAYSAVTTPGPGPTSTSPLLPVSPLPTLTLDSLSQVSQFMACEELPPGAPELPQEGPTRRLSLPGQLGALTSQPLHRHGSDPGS
T1 sequence (P28223 whole entry): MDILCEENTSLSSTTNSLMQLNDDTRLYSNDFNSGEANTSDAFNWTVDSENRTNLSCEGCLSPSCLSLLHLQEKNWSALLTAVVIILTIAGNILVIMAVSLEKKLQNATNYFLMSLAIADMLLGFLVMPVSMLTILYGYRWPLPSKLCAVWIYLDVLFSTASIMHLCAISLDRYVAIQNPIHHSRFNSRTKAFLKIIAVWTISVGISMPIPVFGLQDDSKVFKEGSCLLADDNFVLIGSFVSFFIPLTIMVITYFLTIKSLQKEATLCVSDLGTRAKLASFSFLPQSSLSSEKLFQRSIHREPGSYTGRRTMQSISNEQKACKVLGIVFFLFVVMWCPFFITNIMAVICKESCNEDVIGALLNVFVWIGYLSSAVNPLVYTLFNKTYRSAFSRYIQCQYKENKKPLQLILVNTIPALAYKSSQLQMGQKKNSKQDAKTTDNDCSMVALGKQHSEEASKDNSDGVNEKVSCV

Consider `Cc1cnn(C)c1-c1cc(Nc2ncc(C(F)(F)F)cc2F)ncc1OCCO` [Compound I-063], for which the Ki came to 0.337 nM in test [1] and 2.09 nM in test [2]. The same molecule had an IC50 in test [3] of more than 52000 nM.
Consider `Cn1ncc(Br)c1-c1cc(Nc2ncc(C(F)(F)F)cc2F)ncc1OCCO` [Compound I-062], for which the values for the inhibition constant Ki in test [1] and in test [2] were 0.286 nM and 0.366 nM, respectively. The IC50 in test [3] was more than 52000 nM.
On to `CNC(=O)c1ccc(F)c(-c2cc(Nc3ncc(C(F)(F)F)cc3F)ncc2OCCO)c1F` [Compound I-359], for which the inhibitory constant (Ki) in test [1] ([3H]-Ketanserin, non-specific binding with 500 µmol/L Ketanserin, room temperature (25°C), 1.5 hours, read-out: h 5-HT2A Ki) amounted to 0.952 nM; in test [4] it was 4.57 nM. For the same molecule, in test [5], the half-inhibitory concentration (IC50) is more than 52000 nM.

(Values after EP4631938A1, “NITROGEN-CONTAINING HETEROCYCLE WITH SEROTONIN RECEPTOR-BINDING ACTIVITY AND CARBOCYCLIC DERIVATIVE” (Shionogi & Co., Ltd, priority 2022, dated 2024).)
